Test results from patent publication US6716859B2, “Substituted N′-(Arylcarbonyl)-benzhydrazides, N′(Arylcarbonyl)-benzylidene-hydrazides and analogs as activators of caspases and inducers of apoptosis and the use thereof” (Cytovia, Inc., priority 2001, dated 2004).

Tests used:
[1] = test system: breast and non-breast cancer cells; assay: Cell proliferation assay, breast versus non-breast cancer cell lines; type: cell-based; conditions: conclusion from Tables III and IV
Method: (§1) T-47D and ZR-75-1 cells were grown and harvested as in Example 43. An aliquot of 90 μl of cells (2.2×10^4 cells/ml) was added to a well of a 96-well microtiter plate containing 10 μl of a 10% DMSO in RPMI-1640 media solution containing 1 nM to 100 μM of N′-(2-phenoxypyridine-3-carbonyl)-3-(trifluoromethyl)benzhydrazide (0.1 nM to 10 μM final). An aliquot of 90 μl of cells was added to a well of a 96-well microtiter plate containing 10 μl of a 10% DMSO in RPMI-1640 media solution without compound as the control sample for maximal cell proliferation (AMax). The samples were mixed by agitation and then incubated at 37° C. for 48 h in a 5% CO2-95% humidity incubator. After incubation, the samples were removed from the incubator and 20 μl of CellTiter 96 AQUEOUS One Solution Cell Proliferation™ reagent (Promega) was added. The samples were mixed by agitation and incubated at 37° C. for 2-4 h in a 5% CO2-95% humidity incubator. Using an absorbance plate reader (Model 1420 Wallac Instruments), an initial reading (T=0) was made approximately 1-2 min after addition of the solution, employing absorbance at 490 nm. This determines the possible background absorbance of the test compounds. No absorbance for N′-(2-phenoxypyridine-3-carbonyl)-3-(trifluoromethyl)benzhydrazide was found at 490 nm. After the 2-4 h incubation, the samples were read for absorbance as above (ATest).
Baseline for GI50 (dose for 50% inhibition of cell proliferation) of initial cell numbers were determined by adding an aliquot of 90 μl of cells or 90 μl of media, respectively, to wells of a 96-well microtiter plate containing 10 μl of a 10% DMSO in RPMI-1640 media solution. The samples were mixed by agitation and then incubated at 37° C. for 0.5 h in a 5% CO2-95% humidity incubator. After incubation, the samples were removed from the incubator and 20 μl of CellTiter 96 AQUEOUS One Solution Cell Proliferation™ reagent (Promega) was added. The samples were mixed by agitation and incubated at 37° C. for 2-4 h in a 5% CO2-95% humidity incubator. […]

T47D cells = assay: Clonogenic survival assay; type: cell-based; conditions: Homo sapiens, 48 h treatment, read-out: IC50 of inhibition of clonogenic survival
Method: (§2) T47D and MX-1 cells were grown according to the conditions recommended by American Type Culture Collection. In a well of a 96 well plate, 30,000 cells were seeded and treated with compound at the indicated concentrations for 48 hr in a 5% CO2-95% humidity incubator at 37° C. Control wells were treated with the same amount of solvent (DMSO) as the compound samples. After the indicated treatment time, the supernatant was removed to a sterile culture tube and the wells washed with phosphate buffered saline, and the adherent cells trypsinized for 5 min. The trypsinzed cells were added to the culture supernatant, cells were collected (1,200 rpm, 10 min), washed with phosphate buffered saline, and resupended in fresh media. The cells were counted for trypan blue negative cells, and the cells diluted with fresh media to 1,000 cells/ml. To a well of a 24-well plate, 0.1 ml of the cell suspension was added along with 1 ml of fresh media (cell suspensions were passed through a 22 G needle several times just before plating to form single cell suspensions). Plates are incubated in a 5% CO2-95% humidity incubator at 37° C. for 7-10 days. Colonies are counted when the sizes reached greater than 50 cells per colony. […] Colonies are rinsed with water and the colonies counted and the fraction surviving expressed as the percentage of the number of control colonies.

MX-1 cells = assay: Clonogenic survival assay; type: cell-based; conditions: Homo sapiens, MX1, 48 h treatment, read-out: IC50 of inhibition of clonogenic survival
Method: as §2

MX-1 = assay: Cell proliferation assay (GI50); type: cell-based; conditions: Homo sapiens, MX1
Method: as §1
(§3) Baseline for GI50 (dose for 50% inhibition of cell proliferation) of initial cell numbers were determined by adding an aliquot of 90 μl of cells or 90 μl of media, respectively, to wells of a 96-well microtiter plate containing 10 μl of a 10% DMSO in RPMI-1640 media solution. The samples were mixed by agitation and then incubated at 37° C. for 0.5 h in a 5% CO2-95% humidity incubator. After incubation, the samples were removed from the incubator and 20 μl of CellTiter 96 AQUEOUS One Solution Cell Proliferation™ reagent (Promega) was added. The samples were mixed by agitation and incubated at 37° C. for 2-4 h in a 5% CO2-95% humidity incubator. Absorbance was read as above, (AStart) defining absorbance for initial cell number used as baseline in GI50 determinations.
(§4) GI50 (dose for 50% inhibition of cell proliferation) is the concentration where [(ATest−AStart)/(AMax−AStart)]=0.5
(§5) T-47D, ZR-75-l, MX-1, SK-Br-3, MCF-7, Panc-1, K562 and PC-3 cells were grown according to the conditions recommended by American Type Culture Collection. SW620 and NCI-H23 were grown according to the conditions provided by National Cancer Institute. The cell proliferation assay and the calculations of GI50 were performed as in Example 21 (Tables III and IV).

Panc-1 = assay: Cell proliferation assay (GI50); type: cell-based; conditions: Homo sapiens
Method: as §1, §3, §4, §5

NCI-H23 = assay: Cell proliferation assay (GI50); type: cell-based; conditions: Homo sapiens
Method: as §1, §3, §4, §5

SW-620 = assay: Cell proliferation assay (GI50); type: cell-based; conditions: Homo sapiens
Method: as §1, §3, §4, §5

PC-3 = assay: Cell proliferation assay (GI50); type: cell-based; conditions: Homo sapiens
Method: as §1, §3, §4, §5

K562 = assay: Cell proliferation assay (GI50); type: cell-based; conditions: Homo sapiens
Method: as §1, §3, §4, §5

MCF-7 = assay: Cell proliferation assay (GI50); type: cell-based; conditions: Homo sapiens, MCF7
Method: as §1, §3, §4, §5

ZR-75-1 [2] = assay: Cell proliferation assay (GI50); type: cell-based; conditions: Homo sapiens, 48 h
Method: as §1, §3, §4, §5

SK-Br-3 = assay: Cell proliferation assay (GI50); type: cell-based; conditions: Homo sapiens
Method: as §1, §3, §4, §5

T-47D [3] = assay: Caspase cascade activation assay (fluorogenic DEVD substrate); type: cell-based, Human; conditions: 48 h; for Caspase activity Ratio: ratio of net RFU of test compound to control; for EC50: Homo sapiens, T47D, read-out: Caspase potency EC50
Method: (§6) Human breast cancer cell lines T-47D and ZR-75-1 were grown according to media component mixtures designated by American Type Culture Collection+10% FCS (Invitrogen Corporation), in a 5% CO2-95% humidity incubator at 37° C. T-47D and ZR-75-1 cells were maintained at a cell density between 50 and 80% confluency at a cell density of 0.1 to 0.6×10^6 cells/ml. Cells were harvested at 600×g and resuspended at 0.65×10^6 cells/ml into appropriate media+10% FCS. An aliquot of […] of cells was added to a well of a 96-well microtiter plate containing 2.5 μl of a 10% DMSO in RPMI-1640 media solution containing 0.16 to 100 μM of N′-(2-phenoxypyridine-3-carbonyl)-3-(trifluoromethyl)benzhydrazide (Example 1) or other test compound (0.016 to 10 μM final). An aliquot of 22.5 μl of cells was added to a well of a 384-well microtiter plate containing 2.5 μl of a 10% DMSO in RPMI-1640 media solution without test compound as the control sample. The samples were mixed by agitation and then incubated at 37° C. for 48 h in a 5% CO2-95% humidity incubator. After incubation, the samples were removed from the incubator and 25 μl of a solution containing 14 μM of N-(Ac-DEVD)-N′-ethoxycarbonyl-R110 (SEQ ID No:1) fluorogenic substrate (Cytovia, Inc.; WO99/18856), 20% sucrose (Sigma), 20 mM DTT (Sigma), 200 mM NaCl (Sigma), 40 mM Na PIPES buffer pH 7.2 (Sigma), and 500 μg/ml lysolecithin (Calbiochem) was added. The samples were mixed by agitation and incubated at room temperature. Using a fluorescent plate reader (Model SpectraMax Gemini, Molecular Devices), an initial reading (T=0) was made approximately 1-2 min after addition of the substrate solution, employing excitation at 485 nm and emission at 530 nm, to determine the background fluorescence of the control sample. After the 3 h incubation, the samples were read for fluorescence as above (T=3 h).
(§7) The Relative Fluorescence Unit values (RFU) were used to calculate the sample readings as follows:
(§8) RFU(T=3 h)−Control RFU(T=0)=Net RFU(T=3 h)
(§9) The activity of caspase cascade activation was determined by the ratio of the net RFU value for N′-(2-phenoxypyridine-3-carbonyl)-3-(trifluoromethyl)benzhydrazide (Example 1) or other test compound to that of control samples. The EC50 (nM) was determined by a sigmoidal dose-response calculation (Prism 2.0, GraphPad Software Inc.).

ZR-75-1 [4] = assay: as above; type: cell-based, Human; conditions: 48 h; for Caspase activity Ratio: ratio of net RFU of test compound to control
Method: as §6, §7, §8, §9

T-47D cells = assay: Cell cycle arrest by propidium iodide flow cytometry; type: cell-based, Human; conditions: 1 μM, 24 h
Method: T-47D, a breast cancer cell line, was maintained and harvested as described in Example 43. 5×10^5 Cells were treated with 1 μM of N′-(2-phenoxypyridine-3-carbonyl)-3-(trifluoromethyl)benzhydrazide for 24 h at 37° C. As a control, cells were also incubated with equivalent amount of solvent (DMSO). Cells were harvested at 1,200 rpm and then transferred to 12×75 mm polystyrene tubes. Cells were then resuspended in 500 μl of 1% Na Citrate, 0.1% Triton X-100, and 50 μg/ml of propidium iodide and incubated at room temperature for 30 min followed by flow cytometer analysis. All flow cytometry analyses were performed on FACScalibur (Becton Dickinson) using Cell Quest analysis software. The x-axis plotted the amount of fluorescence and the y-axis is plotted the number of cells with the indicated fluorescence. The T-47D control cell population profile is seen in FIG. 1A and the increase in G2/M (M4) DNA content cells that were treated with N′-(2-phenoxypyridine-3-carbonyl)-3-(trifluoromethyl)benzhydrazide is seen in FIG. 1B.

T-47D [5] = assay: Cell proliferation assay (GI50); type: cell-based, Human; conditions: 48 h
Method: as §1, §3, §4, §5

| SMILES | Selectivity of growth inhibition for breast cancer cells [1] | IC50 (T47D cells) | IC50 (MX-1 cells) | GI50 (MX-1) | GI50 (Panc-1) | GI50 (NCI-H23) | GI50 (SW-620) | GI50 (PC-3) | GI50 (K562) | GI50 (MCF-7) | GI50 (ZR-75-1 [2]) | GI50 (SK-Br-3) | Caspase activity Ratio (T-47D [3]) | EC50 (T-47D [3]) | Caspase potency EC50 (ZR-75-1 [4]) | Caspase activity Ratio (ZR-75-1 [4]) | G2/M (M4) DNA content cells (T-47D cells) | GI50 (T-47D [5]; Homo sapiens, T47D) | EC50 (ZR-75-1 [4]; Homo sapiens, read-out: Caspase potency EC50) | GI50 (T-47D [5]) |
| --- | --- | --- | --- | --- | --- | --- | --- | --- | --- | --- | --- | --- | --- | --- | --- | --- | --- | --- | --- | --- |
| O=C(NNC(=O)c1cccnc1Oc1ccccc1)c1cccc(C(F)(F)F)c1 [Example 1, N′-(2-Phenoxypyridine-3-carbonyl)-3-(trifluoromethyl)benzhydrazide] | selectively inhibits the growth of breast cancer cells | ~1050 nM | ~600 nM | 400 nM | > 10 µM | > 10 µM | > 10 µM | > 10 µM | > 10000 nM | 400 nM | 4500 nM | 40 nM | 11.6 | 464 nM | INACTIVE | 1.8 | increase | 200 nM | – | – |
| O=C(NNC(=O)c1cccnc1Oc1ccccc1)c1ccccc1O [Example 8, N′-(2-Phenoxypyridine-3-carbonyl)-2-hydroxybenzhydrazide] | inhibiting the growth of both breast and non-breast cancer cells | – | – | 1000 nM | – | 1 µM | 1 µM | – | 450 nM | 800 nM | 300 nM | 300 nM | 7.3 | 744 nM | – | 5.6 | – | 1000 nM | 728 nM | 600 nM |
| O=C(NN=Cc1cccc(C(F)(F)F)c1)c1cccnc1Oc1ccccc1 [Example 15, 2-Phenoxypyridine-3-carboxylic acid (3-trifluoromethylbenzylidene)-hydrazide] | selectively inhibits the growth of breast cancer cells | – | – | 400 nM | – | > 10 µM | > 10 µM | – | – | 250 nM | 2000 nM | 20 nM | – | – | – | – | – | 60 nM | – | 80 nM |
